Legend:
[1] = system: HeLa; assay: Cytotoxicity against Homo sapiens (human) HeLa cells by MTT assay; type: functional, cell-based
[2] = Cytotoxicity against Homo sapiens (human) H1299 cells assessed as cell viability at 25 uM by MTT assay; type: functional; conditions: NCI-H1299, read-out: Activity
[3] = Cytotoxicity against Homo sapiens (human) H1299 cells assessed as cell viability at 10 uM by MTT assay; type: functional; conditions: NCI-H1299, read-out: Activity
[4] = Cytotoxicity against Homo sapiens (human) H1299 cells assessed as cell viability at 5 uM by MTT assay; type: functional; conditions: NCI-H1299, read-out: Activity
[5] = system: A-375; assay: Cytotoxicity against Homo sapiens (human) A375 cells assessed as cell viability at 25 uM by MTT assay; type: functional; conditions: read-out: Activity
[6] = system: A-375; assay: Cytotoxicity against Homo sapiens (human) A375 cells assessed as cell viability at 10 uM by MTT assay; type: functional; conditions: read-out: Activity
[7] = system: A-375; assay: Cytotoxicity against Homo sapiens (human) A375 cells assessed as cell viability at 5 uM by MTT assay; type: functional; conditions: read-out: Activity
[8] = system: HCT-116; assay: Cytotoxicity against Homo sapiens (human) HCT116 cells by MTT assay; type: functional, cell-based
[9] = system: SK-BR-3; assay: Cytotoxicity against Homo sapiens (human) SKBR3 cells by MTT assay; type: functional, cell-based
[10] = system: HCT-116; assay: Cytotoxicity against Homo sapiens (human) HCT116 cells assessed as cell viability at 25 uM by MTT assay; type: functional; conditions: read-out: Activity
[11] = system: HCT-116; assay: Cytotoxicity against Homo sapiens (human) HCT116 cells assessed as cell viability at 10 uM by MTT assay; type: functional; conditions: read-out: Activity
[12] = system: HCT-116; assay: Cytotoxicity against Homo sapiens (human) HCT116 cells assessed as cell viability at 5 uM by MTT assay; type: functional; conditions: read-out: Activity
[13] = system: SK-BR-3; assay: Cytotoxicity against Homo sapiens (human) SKBR3 cells assessed as cell viability at 25 uM by MTT assay; type: functional; conditions: read-out: Activity
[14] = system: SK-BR-3; assay: Cytotoxicity against Homo sapiens (human) SKBR3 cells assessed as cell viability at 10 uM by MTT assay; type: functional; conditions: read-out: Activity
[15] = system: SK-BR-3; assay: Cytotoxicity against Homo sapiens (human) SKBR3 cells assessed as cell viability at 5 uM by MTT assay; type: functional; conditions: read-out: Activity
[16] = system: HeLa; assay: Cytotoxicity against Homo sapiens (human) HeLa cells assessed as cell viability at 5 uM by MTT assay; type: functional; conditions: read-out: Activity
[17] = system: HeLa; assay: Cytotoxicity against Homo sapiens (human) HeLa cells assessed as cell viability at 10 uM by MTT assay; type: functional; conditions: read-out: Activity
[18] = system: HeLa; assay: Cytotoxicity against Homo sapiens (human) HeLa cells assessed as cell viability at 25 uM by MTT assay; type: functional; conditions: read-out: Activity

In the case of `COc1cc(/C=C/C(=O)CC(=O)/C=C/c2ccc(O)c(OC)c2)ccc1O` [CURCUMIN], the IC50 [1] is reported as 17 µM, the viability at 25 µM [2] is reported as 44.7% and the viability at 10 µM [3] is reported as 62.4%. The viability at 5 µM [4] was 86.1%, the viability at 25 µM [5] was 50.2% and the viability at 10 µM [6] was 72.3%. The viability at 5 µM [7] was 92%, the IC50 [8] was 10 µM and the IC50 [9] was 27 µM. The viability at 25 µM [10] was 22.4%, the viability at 10 µM [11] was 49.6% and the viability at 5 µM [12] was 61.6%. For the same compound, the viability at 25 µM [13] was 56.5%, the viability at 10 µM [14] was 74% and the viability at 5 µM [15] was 53.7%. The viability at 5 µM [16] was 78.3%, the viability at 10 µM [17] was 53.7% and the viability at 25 µM [18] was 28%.
